Among the test systems are BT-549 breast; EKVX NSCLC; LOX IMVI melanoma; MCF7 breast; MOLT-4 leukemia; NCI-H460 lung; NCI-H522 lung; RPMI-8226 leukemia; SNB-75 CNS; UO-31 renal.
Common to all, as to experiment: growth of human tumour cells (NCI), 48 h

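These data come from cells grown in 96-well plates and exposed to compound for 48 hours at five concentrations. TGI: concentration producing complete growth inhibition.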 A value given as a limit tells only on which side of the number the result lay.

Consider `COc1cccc(CC(C)NCC(O)c2ccc(O)c(O)c2)c1` (stereo unspecified), for which the TGI was greater than 100 µM in the experiment on BT-549 breast; greater than 100 µM in the experiment on EKVX NSCLC; greater than 100 µM in the experiment with LOX IMVI melanoma; greater than 100 µM in the experiment with MCF7 breast; 51.7 µM with MOLT-4 leukemia; greater than 100 µM in the experiment with NCI-H460 lung. The TGI in the experiment on NCI-H522 lung, in the experiment with RPMI-8226 leukemia, with SNB-75 CNS and with UO-31 renal was greater than 100 µM in each case.

As for `O=[N+]([O-])c1c(Br)cc(Br)c2c1Nc1c(ccc(Cl)c1Cl)S2`, the TGI was found to be 8.87 µM with BT-549 breast; 30.9 µM in the experiment on EKVX NSCLC; 8.78 µM in the experiment on LOX IMVI melanoma; 17.9 µM in the experiment on MCF7 breast; 7.6 µM in the experiment with MOLT-4 leukemia; 41.4 µM in the experiment on NCI-H460 lung. The TGI in the experiment with NCI-H522 lung was 20.5 µM; with RPMI-8226 leukemia, greater than 100 µM; in the experiment on SNB-75 CNS, greater than 72 µM; in the experiment on UO-31 renal it was 20.5 µM.

Take `CCOC(=O)C(=[N+]=[N-])C(=O)Nc1nn2nnnc2c2ccccc12`: the TGI in the experiment with BT-549 breast, in the experiment on EKVX NSCLC, in the experiment with LOX IMVI melanoma, in the experiment on MCF7 breast, with MOLT-4 leukemia and in the experiment on NCI-H460 lung was greater than 100 µM each time. For the same compound, the TGI in the experiment on NCI-H522 lung, with RPMI-8226 leukemia, in the experiment with SNB-75 CNS and in the experiment with UO-31 renal was greater than 100 µM throughout.

For the compound `COC1OC(Cc2nnc(C)o2)C(OCc2ccccc2)C(OCc2ccccc2)C1OCc1ccccc1` (stereo unspecified), the TGI in the experiment with BT-549 breast was determined as 83.1 µM; with EKVX NSCLC it was 35.5 µM; with LOX IMVI melanoma, 40.3 µM; in the experiment with MCF7 breast, 49.7 µM; in the experiment on MOLT-4 leukemia it was 33 µM; in the experiment on NCI-H460 lung it was 87 µM. The TGI was 52.7 µM in the experiment on NCI-H522 lung, greater than 100 µM in the experiment with RPMI-8226 leukemia, greater than 100 µM in the experiment on SNB-75 CNS and greater than 100 µM in the experiment with UO-31 renal.

In the case of `CCOC(=O)C(NC(=O)N(C1=NCC(C)S1)C1CCCCC1)(OC)C(F)(F)F` (stereo unspecified), the TGI with BT-549 breast is greater than 100 µM; in the experiment on EKVX NSCLC it was greater than 100 µM; in the experiment with LOX IMVI melanoma it was 60.8 µM; with MCF7 breast, 62.2 µM; in the experiment on MOLT-4 leukemia, greater than 100 µM; in the experiment on NCI-H460 lung, greater than 100 µM. The values for the TGI in the experiment with NCI-H522 lung, in the experiment with SNB-75 CNS and in the experiment with UO-31 renal were 83.4 µM, 75.1 µM and greater than 100 µM, respectively.

In the case of `Cc1cccc2c1[nH]c1[nH]c(=O)[nH]c(=O)c12`, the TGI in the experiment on BT-549 breast, with EKVX NSCLC, with LOX IMVI melanoma, in the experiment on MCF7 breast, in the experiment with MOLT-4 leukemia and with NCI-H522 lung was greater than 100 µM in each case. The TGI was greater than 100 µM in the experiment with RPMI-8226 leukemia, 85.5 µM in the experiment on SNB-75 CNS and greater than 100 µM in the experiment on UO-31 renal.

For the compound `O=CC(O)C(O)C(O)C(O)C(=O)NCCCCCCCCCCCCNC(=O)C(O)C(O)C(O)C(O)C=O` (stereo unspecified), the TGI with BT-549 breast, with EKVX NSCLC, in the experiment on LOX IMVI melanoma, in the experiment with MCF7 breast, with MOLT-4 leukemia and in the experiment on NCI-H460 lung was greater than 100 µM in each case. In addition, the TGI in the experiment on NCI-H522 lung and in the experiment on UO-31 renal was greater than 100 µM each time.

Turning to `COc1cc2nc(-c3ccc4ccccc4c3)[nH]c(=O)c2cc1OC`, the TGI in the experiment on BT-549 breast, with EKVX NSCLC, with LOX IMVI melanoma, in the experiment on MCF7 breast, in the experiment on MOLT-4 leukemia and in the experiment on NCI-H460 lung was greater than 100 µM in each case. Also, the TGI was greater than 100 µM in the experiment on NCI-H522 lung, greater than 100 µM in the experiment with RPMI-8226 leukemia, 58.3 µM with SNB-75 CNS and greater than 100 µM in the experiment on UO-31 renal.

As to `Cc1cc(O)c(C(C)C)cc1SC#N`, the TGI with BT-549 breast worked out at 36.4 µM; with LOX IMVI melanoma, 32.6 µM; with MCF7 breast, 31.6 µM; in the experiment with MOLT-4 leukemia, 25.3 µM; in the experiment on NCI-H460 lung it was 33.4 µM; with NCI-H522 lung, 24.9 µM. Moreover, the TGI with RPMI-8226 leukemia is 33.7 µM; in the experiment on SNB-75 CNS, 22.5 µM.

`CN(C)CCNC(=O)c1ccc(NCCCN(C)CCCNc2ccc3c(=O)n(CCN(C)C)c(=O)n4c5ccccc5c(=O)c2c34)c2c(=O)c3ccccc3[nH]c12`: the TGI with BT-549 breast turned out to be 1.25 µM; in the experiment on EKVX NSCLC, 0.567 µM; in the experiment on LOX IMVI melanoma, 0.119 µM; in the experiment on MCF7 breast it was 0.344 µM; in the experiment with MOLT-4 leukemia, 1.1 µM; with NCI-H460 lung it was 0.0296 µM. The TGI is 0.168 µM in the experiment on NCI-H522 lung, 0.157 µM in the experiment on RPMI-8226 leukemia, 0.0449 µM with SNB-75 CNS and 0.301 µM in the experiment with UO-31 renal.

`CCc1c(Cc2cccc3ccccc23)n2c(nc1=O)SCC2OCCO` (stereo unspecified): the TGI in the experiment on BT-549 breast, in the experiment with EKVX NSCLC, with LOX IMVI melanoma, in the experiment on MCF7 breast, with MOLT-4 leukemia and with NCI-H460 lung was greater than 100 µM in each case. For the same compound, the TGI in the experiment with NCI-H522 lung was greater than 100 µM; in the experiment on RPMI-8226 leukemia it was 94.4 µM; in the experiment on SNB-75 CNS it was greater than 100 µM; with UO-31 renal, greater than 100 µM.

On to `Cc1ccc(S(=O)(=O)NNC(=O)c2cc(C)ccc2NC(=O)C23CC4CC(CC(C4)C2)C3)cc1`, for which the TGI in the experiment on BT-549 breast, with EKVX NSCLC, with LOX IMVI melanoma, in the experiment with MCF7 breast, in the experiment with MOLT-4 leukemia and with NCI-H460 lung was greater than 100 µM each time. Also, the TGI was 76.3 µM with NCI-H522 lung, greater than 100 µM with RPMI-8226 leukemia and 44.9 µM in the experiment on UO-31 renal.

As to `Cc1cc(=O)n2nc(SCc3ccccc3)sc2n1`, the TGI in the experiment on BT-549 breast, with LOX IMVI melanoma, in the experiment on MCF7 breast, with MOLT-4 leukemia, in the experiment on NCI-H460 lung and in the experiment on NCI-H522 lung was greater than 100 µM in each case. Also, the figures for the TGI in the experiment with RPMI-8226 leukemia, in the experiment on SNB-75 CNS and with UO-31 renal were greater than 100 µM, greater than 100 µM and 67.5 µM, respectively.

With `CC(=O)O[C@@H]1C[C@@]23C[C@@]24CC[C@H](OC2OCC(O)C(O)C2O)C(C)(C)[C@@H]4CC=C3[C@]2(C)C[C@@H]3OC4(C[C@@H](C)[C@@H]3[C@@]12C)OC(O)[C@@]1(C)O[C@@H]41` (stereo partly specified), the TGI with BT-549 breast is 97.3 µM; with EKVX NSCLC, greater than 100 µM; in the experiment on LOX IMVI melanoma, 57 µM; in the experiment on MCF7 breast, greater than 100 µM; with NCI-H460 lung, 66.9 µM; in the experiment with NCI-H522 lung, 89.4 µM. For the same compound, the TGI in the experiment with RPMI-8226 leukemia is 47.1 µM; in the experiment with SNB-75 CNS, 58.7 µM; with UO-31 renal, greater than 100 µM.

These data come from PubChem BioAssay (NCI).
